Laboratory results reported in patent publication US9221838B2, “Inhibitors of AKT activity” (ALMAC DISCOVERY LIMITED, priority 2009, dated 2015).

Key:
Type in all cases: biochemical
[1] = biological target: T1, AKT1 (Homo sapiens, UniProt P31749); experiment: AKT Kinase Assay (IMAP fluorescent polarisation) vs AKT1
T1 construct: purchased SignalChem
Experimental: (§1) Testing of the compounds was performed using an AKT Kinase Assay:
(§2) Activated AKT isoforms 1, 2 and 3 were assayed utilising a 5′ FAM Crosstide (Seq. GRPRTSSFAEG-OH)(SEO ID NO: 1). The extent of kinase phosphorylation was determined by fluorescent polarisation using IMAP progressive binding reagent, which introduces binding beads which allow the reagent to specifically bind to phosphate residues via covalent co-ordination complex bonds.
(§3) iMAP binding solution stops Crosstide/kinase interaction and specifically binds phosphorylated substrates. The degree of phosphorylation is determined by fluorescent polarisation (excitation 485 nm; emission 528 nm) or the reduction in speed of rotation of the excited substrate.
(§4) The following materials were used in the assay: • a) Activated AKT isoforms (SignalChem.) dissolved in Complete Reaction buffer at a pre-determined concentration selected so that the assay was carried out in the linear range. • b) AKT substrate peptide: FAM Crosstide (R7110) Molecular Devices, diluted in complete reaction buffer. • c) iMAP Progressive Screening Express Kit (R8127) Molecular Devices • d) Complete Reaction Buffer containing 0.1% BSA, 10 mM Tris-HCl, 10 mM MgCl2, 0.05% NaN3 and 0.01% phosphate free BSA, 1 mM DTT • e) Progressive Binding Solution containing 75% Buffer A, 25% Buffer B and low volume Binding Reagent which contains the binding entity for the assay • f) ATP diluted in complete reaction buffer • g) Black polystyrene 384 well assay plates (Nunc). • h) Biotek Synergy 4 Hybrid Plate reader.
(§5) 5 μl of test compound was dissolved in DMSO (Sigma Aldrich) and serially diluted in complete reaction buffer to give a fourteen point half log dose response and plated into 384 well black plates. The compound was incubated at room temperature with activated AKT isoform ([…] ) at the pre-determined concentration, for 45 minutes.
(§6) 2.5 μl of ATP solution mixed with 2.5 μl of AKT substrate peptide (FAM Crosstide (R7110) Molecular Devices) were dispensed into each well and the plate centrifuged at 1000 rpm for 20 seconds to ensure homogenous mixing of reagents. The reaction mix was incubated in the dark for one hour at room temperature.
(§7) The kinase reaction was stopped by the addition of Progressive Binding Solution and the mixture allowed to equilibrate for one hour in the dark, at room temperature.
(§8) The fluorescent polarisation generated in each well was determined using a […] Synergy 4 Hybrid plate reader. In brief, each reaction solution was excited at 485 nm with the emission measured at 528 nm in both the parallel and perpendicular pathway.
(§9) The polarisation value generated in each well was calculated by Gen5 software (Biotek) and the % inhibition of kinase activity compared to vehicle control was calculated via GraphPad Prism. IC50 values for each compound were calculated by non-linear regression analysis using Prism software.
(§10) All plates were internally controlled by two methods. Firstly, by calculating the signal:noise ratio; based on kinase polarisation without inhibitor and polarisation generated by complete reaction buffer in the absence of activated kinase. Secondly by determining IC50 values generated by known inhibitors of the AKT isoforms.

[2] = biological target: T2, AKT3 (Homo sapiens, UniProt Q9Y243); experiment: AKT Kinase Assay (IMAP fluorescent polarisation) vs AKT3
T2 construct: purchased SignalChem
Experimental: as §1, §2, §3, §4, §5, §6, §7, §8, §9, §10

[3] = biological target: T3, AKT2 (Homo sapiens, UniProt P31751); experiment: AKT Kinase Assay (IMAP fluorescent polarisation) vs AKT2
T3 construct: purchased SignalChem
Experimental: as §1, §2, §3, §4, §5, §6, §7, §8, §9, §10

T1 sequence (P31749 whole entry): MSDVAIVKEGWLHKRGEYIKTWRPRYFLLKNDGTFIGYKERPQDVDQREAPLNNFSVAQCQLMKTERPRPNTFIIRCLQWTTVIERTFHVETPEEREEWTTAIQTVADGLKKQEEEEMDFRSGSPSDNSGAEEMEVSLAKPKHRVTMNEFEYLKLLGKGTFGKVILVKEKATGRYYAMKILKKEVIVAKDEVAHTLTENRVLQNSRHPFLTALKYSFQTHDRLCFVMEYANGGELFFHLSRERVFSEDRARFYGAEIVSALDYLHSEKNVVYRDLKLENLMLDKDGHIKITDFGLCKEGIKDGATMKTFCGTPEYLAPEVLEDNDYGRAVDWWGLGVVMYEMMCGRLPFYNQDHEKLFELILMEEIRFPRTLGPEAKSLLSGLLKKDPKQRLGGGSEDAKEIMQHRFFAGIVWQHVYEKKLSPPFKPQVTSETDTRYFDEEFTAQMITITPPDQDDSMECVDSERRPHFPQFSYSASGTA
T3 sequence (P31751 whole entry): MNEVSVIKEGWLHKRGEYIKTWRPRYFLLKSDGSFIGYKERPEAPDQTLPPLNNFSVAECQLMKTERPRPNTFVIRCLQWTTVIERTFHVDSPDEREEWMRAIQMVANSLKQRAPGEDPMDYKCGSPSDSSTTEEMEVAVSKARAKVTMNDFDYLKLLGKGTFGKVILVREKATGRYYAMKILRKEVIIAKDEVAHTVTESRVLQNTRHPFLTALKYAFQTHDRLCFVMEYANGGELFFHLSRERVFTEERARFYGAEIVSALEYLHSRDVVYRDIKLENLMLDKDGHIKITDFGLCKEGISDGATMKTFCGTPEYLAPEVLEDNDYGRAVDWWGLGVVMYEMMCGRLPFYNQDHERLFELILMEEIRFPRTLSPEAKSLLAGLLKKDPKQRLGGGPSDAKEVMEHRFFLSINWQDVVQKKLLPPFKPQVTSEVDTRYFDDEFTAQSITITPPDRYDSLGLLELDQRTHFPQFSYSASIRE
T2 sequence (Q9Y243 whole entry): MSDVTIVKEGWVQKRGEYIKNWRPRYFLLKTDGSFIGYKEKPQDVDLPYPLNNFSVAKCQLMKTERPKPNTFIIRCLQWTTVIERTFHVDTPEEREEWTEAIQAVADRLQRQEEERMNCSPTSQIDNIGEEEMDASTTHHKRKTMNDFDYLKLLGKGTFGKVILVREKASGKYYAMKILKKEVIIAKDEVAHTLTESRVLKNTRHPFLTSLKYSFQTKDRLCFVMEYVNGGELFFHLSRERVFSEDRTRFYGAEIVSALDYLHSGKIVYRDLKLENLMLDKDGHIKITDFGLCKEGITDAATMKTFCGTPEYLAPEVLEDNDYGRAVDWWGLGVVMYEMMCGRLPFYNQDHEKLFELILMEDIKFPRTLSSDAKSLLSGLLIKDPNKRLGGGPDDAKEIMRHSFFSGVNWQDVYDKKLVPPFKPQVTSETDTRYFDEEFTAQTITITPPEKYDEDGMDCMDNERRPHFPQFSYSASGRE

IC50 [1] [µM] | IC50 [2] [µM] | IC50 [3] [µM] | SMILES
0.1 to 1 | 0.1 to 1 | ≤ 0.1 | NC1(c2ccc(-c3nc4c(cc3-c3ccccc3)N(CC3CC3)C(=O)CO4)cc2)CCC1 [Example 55, 6-(4-(1-aminocyclobutyl)phenyl)-1-(cyclopropylmethyl)-7-phenyl-1H-pyrido[2,3-b][1,4]oxazin-2(3H)-one]
1 to 10 | 1 to 10 | 0.1 to 1 | NC1(c2ccc(-c3nc4c(cc3-c3ccccc3)N(Cc3ccncc3)C(=O)CO4)cc2)CCC1 [Example 45, 6-(4-(1-aminocyclobutyl)phenyl)-7-phenyl-1-(pyridin-4-ylmethyl)-1H-pyrido[2,3-b][1,4]oxazin-2(3H)-one]
0.1 to 1 | 1 to 10 | 0.1 to 1 | N#CCCCCN1C(=O)COc2nc(-c3ccc(C4(N)CCC4)cc3)c(-c3ccccc3)cc21 [Example 66, 5-(6-(4-(1-aminocyclobutyl)phenyl)-2-oxo-7-phenyl-2,3-dihydro-1H-pyrido[2,3-b][1,4]oxazin-1-yl)pentanenitrile]
0.1 to 1 | 1 to 10 | ≤ 0.1 | CCN1C(=O)COc2nc(-c3ccc(C4(N)CCC4)cc3)c(-c3ccccc3)cc21 [Example 52, 6-(4-(1-aminocyclobutyl)phenyl)-1-ethyl-7-phenyl-1H-pyrido[2,3-b][1,4]oxazin-2(3H)-one]
1 to 10 | > 10 | 1 to 10 | CC1(C)CC(=O)c2cc(-c3ccccc3)c(-c3ccc(C4(N)CCC4)cc3)nc2C1 [Example 18, 2-(4-(1-aminocyclobutyl)phenyl)-7,7-dimethyl-3-phenyl-7,8-dihydroquinolin-5(6H)-one]
0.1 to 1 | 1 to 10 | 1 to 10 | Nc1ncc2c(n1)-c1cc(-c3ccccc3)c(-c3ccc(C4(N)CCC4)cc3)nc1CC2 [Example 17]
1 to 10 | > 10 | 0.1 to 1 | CO/N=C1\COc2nc(-c3ccc(C4(N)CCC4)cc3)c(-c3ccccc3)cc2N1C [Example 90, 6-(4-(1-Aminocyclobutyl)phenyl)-1-methyl-7-phenyl-1H-pyrido[2,3-b][1,4]oxazin-2(3H)-one O-methyl oxime]
0.1 to 1 | 1 to 10 | 0.1 to 1 | Cn1nc2n(c1=O)-c1cc(-c3ccccc3)c(-c3ccc(C4(N)CCC4)cc3)nc1OC2 [Example 99, 7-(4-(1-aminocyclobutyl)phenyl)-2-methyl-8-phenyl-2,4-dihydro-1H-pyrido[2,3-b][1,2,4]triazolo[4,3-d][1,4]oxazin-1-one]
≤ 0.1 | > 10 | 1 to 10 | NC1(c2ccc(-c3nc4c(cc3-c3ccccc3)-c3n[nH]c(=O)n3CC4)cc2)CCC1 [Example 26, 8-(4-(1-aminocyclobutyl)phenyl)-9-phenyl-5,6-dihydro-[1,2,4]triazolo[3,4][1,6]naphthyridin-3(2H)-one]
≤ 0.1 | 0.1 to 1 | 0.1 to 1 | NC1(c2ccc(-c3nc4c(cc3-c3ccccc3)-n3c(CF)nnc3CO4)cc2)CCC1 [Example 120, 1-(4-(1-(fluoromethyl)-8-phenyl-4H-pyrido[2,3-b][1,2,4]triazolo[4,3-d][1,4]oxazin-7-yl)phenyl)cyclobutanamine]
0.1 to 1 | > 10 | 1 to 10 | NC1(c2ccc(-c3nc4c(cc3-c3ccccc3)-c3n[nH]cc3CCC4)cc2)CCC1 [Example 21, 1-(4-(9-phenyl-2,4,5,6-tetrahydropyrazolo[3′,4′:3,4]cyclohepta[1,2-b]pyridin-8-yl)phenyl)cyclobutanamine]
0.1 to 1 | 1 to 10 | 1 to 10 | NC1(c2ccc(-c3nc4c(cc3-c3ccccc3)-n3c(nnc3C(F)(F)F)CO4)cc2)CCC1 [Example 100, 1-(4-(8-phenyl-1-(trifluoromethyl)-4H-pyrido[2,3-b][1,2,4]triazolo[4,3-d][1,4]oxazin-7-yl)phenyl)cyclobutanamine]
0.1 to 1 | 1 to 10 | 0.1 to 1 | CC(C)Cc1nnc2n1-c1cc(-c3ccccc3)c(-c3ccc(C4(N)CCC4)cc3)nc1OC2 [Example 115, 1-(4-(1-isobutyl-8-phenyl-4H-pyrido[2,3-b][1,2,4]triazolo[4,3-d][1,4]oxazin-7-yl)phenyl)cyclobutanamine]
0.1 to 1 | 1 to 10 | ≤ 0.1 | NC1(c2ccc(-c3nc4c(cc3-c3ccccc3)N(CCF)C(=O)CO4)cc2)CCC1 [Example 86, 6-(4-(1-aminocyclobutyl)phenyl)-1-(2-fluoroethyl)-7-phenyl-1H-pyrido[2,3-b][1,4]oxazin-2(3H)-one]
1 to 10 | 1 to 10 | 1 to 10 | NC1(c2ccc(-c3nc4c(cc3-c3ccccc3)N(Cc3cnc[nH]3)C(=O)CO4)cc2)CCC1 [Example 53, 1-((1H-imidazol-5-yl)methyl)-6-(4-(1-aminocyclobutyl)phenyl)-7-phenyl-1H-pyrido[2,3-b][1,4]oxazin-2(3H)-one]
0.1 to 1 | 1 to 10 | 1 to 10 | NC1(c2ccc(-c3nc4c(cc3-c3ccccc3)NC(=O)C(CCO)O4)cc2)CCC1 (stereo not drawn) [Example 71, 6-(4-(1-aminocyclobutyl)phenyl)-3-(2-hydroxyethyl)-7-phenyl-1H-pyrido[2,3-b][1,4]oxazin-2(3H)-one]
≤ 0.1 | > 10 | 1 to 10 | NC1(c2ccc(-c3nc4c(cc3-c3ccccc3)-c3n[nH]c(O)c3CC4)cc2)CCC1 [Example 7, 7-(4-(1-aminocyclobutyl)phenyl)-8-phenyl-4,5-dihydro-2H-pyrazolo[3,4f]quinolin-3-ol]
1 to 10 | 1 to 10 | 1 to 10 | CCc1nnc2n1-c1cc(-c3ccccc3)c(-c3ccc(CN)cc3)nc1OC2 [Example 142, (4-(1-ethyl-8-phenyl-4H-pyrido[2,3-b][1,2,4]triazolo[4,3-d][1,4]oxazin-7-yl)phenyl)methanamine]
1 to 10 | > 10 | 0.1 to 1 | CC(=O)N1CCOc2nc(-c3ccc(C4(N)CCC4)cc3)c(-c3ccccc3)cc21 [Example 41, 1-(6-(4-(1-aminocyclobutyl)phenyl)-7-phenyl-2,3-dihydro-1H-pyrido[2,3-b][1,4]oxazin-1-yl)ethanone]
0.1 to 1 | 0.1 to 1 | ≤ 0.1 | NC1(c2ccc(-c3nc4c(cc3-c3ccccc3)N(CC3CCC3)C(=O)CO4)cc2)CCC1 [Example 48, 6-(4-(1-aminocyclobutyl)phenyl)-1-(cyclobutylmethyl)-7-phenyl-1H-pyrido[2,3-b][1,4]oxazin-2(3H)-one]
1 to 10 | > 10 | 0.1 to 1 | NC(=O)CN1C(=O)COc2nc(-c3ccc(C4(N)CCC4)cc3)c(-c3ccccc3)cc21 [Example 35, 2-(6-(4-(1-aminocyclobutyl)phenyl)-2-oxo-7-phenyl-2,3-dihydro-1H-pyrido[2,3-b][1,4]oxazin-1-yl)acetamide]
≤ 0.1 | > 10 | 1 to 10 | NC1(c2ccc(-c3nc4c(cc3-c3ccccc3)-c3n[nH]c(NCCO)c3CC4)cc2)CCC1 [Example 12, 2-((7-(4-(1-aminocyclobutyl)phenyl)-8-phenyl-4,5-dihydro-2H-pyrazolo[3,4-f]quinolin-3-yl)amino)ethanol]
≤ 0.1 | 1 to 10 | 0.1 to 1 | NC1(c2ccc(-c3nc4c(cc3-c3ccccc3)-c3ncncc3CC4)cc2)CCC1 [Example 16, 1-(4-(9-phenyl-5,6-dihydropyrido[2,3-h]quinazolin-8-yl)phenyl)-cyclobutanamine]
0.1 to 1 | > 10 | 1 to 10 | COCC1Oc2nc(-c3ccc(C4(N)CCC4)cc3)c(-c3ccccc3)cc2N(C)C1=O (stereo not drawn) [Example 96, 6-(4-(1-aminocyclobutyl)phenyl)-3-(methoxymethyl)-1-methyl-7-phenyl-1H-pyrido[2,3-b][1,4]oxazin-2(3H)-one]
0.1 to 1 | 1 to 10 | 0.1 to 1 | NC1(c2ccc(-c3nc4c(cc3-c3ccccc3)-n3c(n[nH]c3=O)CO4)cc2)CCC1 [Example 38, 7-(4-(1-aminocyclobutyl)phenyl)-8-phenyl-2,4-dihydro-1H-pyrido[2,3-b][1,2,4]triazolo[4,3-d][1,4]oxazin-1-one]
